Assay results reported in patent US20190117655A1, “Treatment of Biliary Duct Cancer” (ASLAN Pharmaceuticals PTE LTD, priority 2015, published 2019).
Read-outs that look alike come from different tables or passages of the source.

Columns and labels:
[1] = system: stage IV cholangiocarcinoma; assay: Example 4: person, stage IV cholangiocarcinoma, Varlitinib 500 mg with cisplatin/capecitabine; assay type: in vivo, human; details: after treatment cycle 2; Varlitinib 500 mg bi-daily, cisplatin and capecitabine
Experimental: A person with stage IV cholangiocarcinoma had progressive disease following treatment with radiotherapy and bi-weekly 5-FU. […] The cisplatin and capecitabine regime was cisplatin 80 mg/m^2 IV infusion and capecitabine 1000 mg/m^2 orally twice daily for 14 days every 3 weeks.

[2] = system: stage IV cholangiocarcinoma; assay: Example 7: person, stage IV cholangiocarcinoma, Varlitinib with cisplatin/5-FU then monotherapy; assay type: in vivo, human
Experimental: A person with stage IV cholangiocarcinoma newly diagnosed in 2014 received surgery (percutaneous […] cholangial drainage and transcatheter […] embolization), followed by adjuvant treatment of Varlitinib 400 mg BID combined with cisplatin s/5-FU 28-day cycle. After cycle 6 (14 Jul. 2015), only 400 mg BID Varlitinib was taken. Patient completed 10 cycles of monotherapy. At Cycle 11 Day 1, dose was reduced to 300 mg BID alternate days. […] 2015. Progressive disease observed in cycle 16 of monotherapy 12 Apr. 2016.

[3] = system: intrahepatic bile duct cholangiocarcinoma; assay: Example 6: person, intrahepatic bile duct cholangiocarcinoma, Varlitinib with FOLFOX then monotherapy; assay type: in vivo, human; details: 9 cycles Varlitinib 400 mg reduced to 300 mg BID with FOLFOX, then 7 cycles monotherapy
Experimental: A person diagnosed in 2013 with intrahepatic bile duct cholangiocarcinoma, had received surgery in the form of left hemihepatectomy in 15 Jul. 2013. Prior therapies were gemcitabine and cisplatin (in the period 14 Aug. 2013 to 8 Jan. 2014) and repeated between 13 May 2015 and 1 Jul. 2015. With this treatment the status was progressive disease. The patient was given 9 cycles of a combination of Varlitinib 400 mg reduced to 300 mg BID and FOLFOX. This was followed with 7 cycles of Varlitinib monotherapy.

[4] = system: treatment naïve advanced or metastatic biliary tract cancer (BTC); assay type: in vivo; details: for Median progression-free survival (PFS): at data cut-off
Experimental: The primary objectives for the phase Ib study are to determine the maximum tolerated dose (MTD) and to characterize the safety profile of varlitinib when given with gem/cis. Secondary objectives include evaluation of preliminary efficacy of the study regimen and to evaluate the pharmacokinetics of varlitinib, and any circulating metabolites. A modified 3+3+3 escalation design was used, with 2 varlitinib dose levels (200 and 300 mg twice daily) combined with cisplatin (25 mg/m^2, IV for 2 hours), followed by Gemcitabine (1000 mg/m^2, 30-minute infusion) on Day 1 and Day 8 in a 3 weeks cycle.

[5] = system: advanced or metastatic biliary tract cancer; assay: Example 10: Phase 2A single arm study of varlitinib plus capecitabine in Chinese patients (NCT03231176); assay type: in vivo, human; details: Varlitinib 300 mg BID plus capecitabine 1000 mg/m^2 BID 2 weeks on, 1 week off; ongoing study
Experimental: This study is to assess the efficacy of varlitinib (300 mg twice daily in a 21-day cycle) plus capecitabine (1,000 mg/m^2 twice daily for 2 weeks followed by a 7-day rest period) in patients with advanced or metastatic BTC.
Primary Objective: • To assess the efficacy of varlitinib plus capecitabine in patients with advanced or metastatic biliary tract cancer who progressed on first line of systemic therapy as measured by Objective Response Rate (ORR) based on RECIST v1.1.
Secondary Objectives: • To evaluate the efficacy of varlitinib plus capecitabine, as measured by duration of confirmed response (DoR), progression-free survival (PFS), overall survival (OS) and disease control rate (DCR) • To assess the safety and tolerability of varlitinib when combined with capecitabine
A phase 2A, single arm, multicentre study of varlitinib plus capecitabine in Chinese patients with advanced or metastatic biliary tract cancer who progressed on at least 1 line of systemic therapy.
The Study duration is divided into 3 different stages.
• Have histologically or cytologically confirmed advanced (unresectable) or metastatic BTC, including intrahepatic or extrahepatic CCA, gallbladder cancer and carcinoma of Ampulla of Vater. […]

[6] = system: intrahepatic cholangiocarcinoma, stage IV; assay: Example 8: person, stage IV intrahepatic cholangiocarcinoma, Varlitinib with mFOLFOX6 then monotherapy (ASLAN001-002SG); assay type: in vivo, human; details: after cycle 18
From the text: They received left hemihepatectomy followed by 6 cycles of adjuvant gemcitabine and cisplatin.

[7] = system: extra-hepatic cholangiocarcinoma; assay: Example 2: person, stage IV extra-hepatic cholangiocarcinoma, Varlitinib with cisplatin/capecitabine then monotherapy; assay type: in vivo, human
Experimental: A person, stage IV, extra-hepatic cholangiocarcinoma, prior treatment: • Whipple • Radiotherapy • Gemzar/cisplatin for 6 months For the first 6 cycles, the patient received Varlitinib 400 mg BID continuously with cisplatin (80 mg/m^2 every 3 weeks) and capecitabine (1000 mg/m2 BID, 2 weeks on, 1 week off). […] In summary, the patient received varlitinib with chemo for 6 cycles and varlitinib monotherapy for another 4 cycles (3 weeks per cycle).

[8] = system: stage IV cholangiocarcinoma; assay: Example 3: person, stage IV cholangiocarcinoma, Varlitinib with cisplatin/capecitabine; assay type: in vivo, human; details: Varlitinib 400 mg bi-daily, cisplatin and capecitabine
Experimental: A person with stage IV cholangiocarcinoma (3 lesions) had progressive disease following treatment with: • radiotherapy, and • gemcitabine (Gemzar®) and cisplatin—6 months. […] The cisplatin and capecitabine regime was cisplatin 80 mg/m^2 IV infusion and capecitabine 1000 mg/m^2 orally twice daily for 14 days every 3 weeks.

[9] = system: stage IV cholangiocarcinoma and metastatic lymphadenopathy; assay: Example 5: person, stage IV cholangiocarcinoma and metastatic lymphadenopathy, Varlitinib with cisplatin/5-FU; assay type: in vivo, human; details: 300 mg BID Varlitinib with cisplatin/5-FU
Experimental: A person was diagnosed with stage IV cholangiocarcinoma and metastatic lymphadenopathy in January 2016. No prior surgery or treatment was given before initiating first line treatment of 300 mg BID Varlitinib combined with […]/5-FU, 28-day treatment cycle. Date of the first response 5 Mar. 2016, tumor C2 was reduced by 16%. Last response tumor C4 was reduced by 13% (17 May 2016).

[10] = system: stage IV cholangiocarcinoma; assay: Example 1: person, stage IV EGFR positive cholangiocarcinoma, Varlitinib monotherapy; assay type: in vivo, human
[11] = Combination of Varlitinib and Herceptin versus either alone; details: Varlitinib in combination with Herceptin (trastuzumab)
From the text: In one embodiment the compound of formula (I), such as Varlitinib, is employed in combination with at least one further HER inhibitor, for example a combination of Varlitinib and Herceptin (trastuzumab) and/or pertuzumab.

cholangiocarcinoma = assay: Second line monotherapy trial in cholangiocarcinoma patients, CA19-9 marker; assay type: in vivo, human
From the text: CA19-9 is a marker employed in the management of cholangiocarcinoma.

gastric tumours = details: 500 mg orally BID monotherapy 28 days, gastric tumours co-expressing EGFR and HER2 or HER2 amplified, cited from earlier work
[12] = system: advanced or metastatic biliary tract cancer; details: capecitabine monotherapy, similar populations; cited from earlier work
[13] = Cohort of 200 mg BID, with gem/cis
[14] = Cohort of 300 mg BID, with gem/cis
[15] = after treatment cycle 6, Varlitinib 400 mg bi-daily monotherapy

## C[C@@H]1COC(Nc2ccc3ncnc(Nc4ccc(OCc5nccs5)c(Cl)c4)c3c2)=N1 [Varlitinib, (R)—N4-[3-Chloro-4-(thiazol-2-ylmethoxy)-phenyl]-N6-(4-methyl-4,5,-dihydro-oxazol-2-yl)-quinazoline-4,6-diamine]
[1]
  Response: 4%
[2]; Varlitinib 400 mg BID with cisplatin/5-FU, 28-day cycle
  Cycle of treatment in which first response was observed: 2 cycle
[2]; Varlitinib monotherapy after cycle 6
  Cycle in which progressive disease was observed: 16 cycle
[2]; varlitinib monotherapy after 6 cycles of varlitinib with cisplatin/5-FU
  Disease control: remarkable disease control
[3]
  Patient status: partial response
  Reduction in tumor size: 50%
[4]; 200 mg cohort, with gem/cis
  Median progression-free survival (PFS): 238 days
[4]; 300 mg cohort, with gem/cis
  Median progression-free survival (PFS): not reached
[4]; All, with gem/cis
  DCR overview: Complete Response, patients: 0
  DCR overview: Non-responders, patients: 4
  DCR overview: PD, patients: 0
  DCR overview: Partial Response, patients: 7
  DCR overview: Responders, patients: 17
  DCR overview: Responders, share of evaluable patients: (81.0%)
  DCR overview: SD (≤12 weeks), patients: 2
  DCR overview: SD (≥12 weeks), patients: 10
  ORR overview: Complete Response, patients: 0
  ORR overview: PD, patients: 0
  ORR overview: Partial Response, patients: 7
  ORR overview: Partial Response, share of evaluable patients: (33.3%)
  ORR overview: SD (≥6 weeks), patients: 12
[4]; [13]
  DCR overview: Complete Response, patients: 0
  DCR overview: Non-responders, patients: 1
  DCR overview: PD, patients: 0
  DCR overview: Partial Response, patients: 4
  DCR overview: Responders, patients: 10
  DCR overview: Responders, share of evaluable patients: (90.9%)
  DCR overview: SD (≤12 weeks), patients: 1
  DCR overview: SD (≥12 weeks), patients: 6
  ORR overview: Complete Response, patients: 0
  ORR overview: PD, patients: 0
  ORR overview: Partial Response, patients: 4
  ORR overview: Partial Response, share of evaluable patients: (36.4%)
  ORR overview: SD (≥6 weeks), patients: 7
[4]; [14]
  DCR overview: Complete Response, patients: 0
  DCR overview: Non-responders, patients: 3
  DCR overview: PD, patients: 0
  DCR overview: Partial Response, patients: 3
  DCR overview: Responders, patients: 7
  DCR overview: Responders, share of evaluable patients: (70.0%)
  DCR overview: SD (≤12 weeks), patients: 1
  DCR overview: SD (≥12 weeks), patients: 4
  ORR overview: Complete Response, patients: 0
  ORR overview: PD, patients: 0
  ORR overview: Partial Response, patients: 3
  ORR overview: Partial Response, share of evaluable patients: (30%)
  ORR overview: SD (≥6 weeks), patients: 5
[4]; both 200 mg and 300 mg cohorts, Varlitinib plus gem/cis
  Antitumor activity: Antitumor activity was observed
[4]; both cohorts, with gem/cis
  Patients with partial response per RECIST v1.1: 7 patients
  Patients with stable disease more than 12 weeks: 10 patients
[4]; human, in vivo
  All-grade adverse event: anaemia: 33%
  All-grade adverse event: decreased appetite: 38%
  All-grade adverse event: diarrhoea: 38%
  All-grade adverse event: nausea: 38%
  All-grade adverse event: neutrophil decreased: 38%
  All-grade adverse event: platelet decreased: 52%
  Dose limiting toxicities observed, number of patients: 3 patients
  Grade ≥3 adverse event: anaemia: 19%
  Grade ≥3 adverse event: neutrophil decreased: 33%
  Grade ≥3 adverse event: platelet decreased: 29%
[4]; with gem/cis
  Disease control rate: 81.0%
[5]
  Safety and tolerability: safe and tolerated without any unexpected adverse events
[6]; 9 cycles Varlitinib 400 mg BID with mFOLFOX6, then 9 cycles monotherapy
  Reduction in tumor size, best response from baseline: 53%
[6]
  Tumor assessment status: partial response
[7]; 6 cycles with chemo then monotherapy
  Duration of partial remission: 24 weeks
[7]; end of cycle 6, Varlitinib 400 mg BID with cisplatin 80 mg/m^2 and capecitabine 1000 mg/m2 BID
  Reduction in tumour size: 85.77%
[7]; end of cycle 8, varlitinib monotherapy after cycle 6
  Reduction in tumour size: 87%
[7]; end of cycle 10, on varlitinib monotherapy
  Disease status by RECIST: disease progression
[8]
  Tolerability: well tolerated
[8]; after treatment cycle 6
  Response: 85.77%
[8]; first two treatment cycles
  Dose limiting toxicity: No dose limiting toxicity was observed
[9]
  Current disease status: stable disease
[9]; C2, first line
  Tumor reduction, first response: 16%
[9]; C4, first line
  Tumor reduction, last response: 13%
[10]; [15]
  Decrease in size of liver tumours: up to 23%
  Tumour marker CA 19-9 after treatment: ~250 U/ml
[10]; level from which the marker fell
  Tumour marker CA 19-9, starting level: ~900 U/ml
[11]
  Therapeutic activity of combination versus either entity alone: more therapeutic activity than either entity alone
cholangiocarcinoma; one patient, within one month of initiating Varlitinib
  Reduction in CA19-9: 90%
cholangiocarcinoma; second line Varlitinib monotherapy, cholangiocarcinoma patients
  CA19-9 levels: significant reduction
Gastric tumours; biopsies before/after
  Signs of clinical activity: signalling pathways responsible for cell proliferation: downregulation of signalling pathways responsible for cell proliferation
Gastric tumours
  Signs of clinical activity: cell survival and cell proliferation in gastric tumours: reduction in cell survival and cell proliferation

## CCCCCOC(=O)Nc1nc(=O)n([C@@H]2O[C@H](C)[C@@H](O)[C@H]2O)cc1F [capecitabine]
[12]
  Historical response rate, ORR: 6-8%
